Measurements taken from ChEMBL document CHEMBL5523694, “Research progress on small molecule inhibitors targeting KRAS G12C with acrylamide structure and the strategies for solving KRAS inhibitor resistance” (Bioorg Med Chem, 2024).

What was measured:
GTPase KRas [1] = molecular target: T1, GTPase KRas (Homo sapiens, UniProt P01116, G12C); test: Inhibition of KRAS G12C mutant (unknown origin) by HTRF method
GTPase KRas [2] = molecular target: T1, GTPase KRas; test: Inhibition of KRAS G12C mutant in human HCC1171 cells; format: cell-based
[3] = tested on: GTPase KRas (Homo sapiens), P01116 [G12C]; test: Inhibition of KRAS G12C mutant (1 to 169 residues) (unknown origin) at 5 uM incubated for 1 min by Mass spectrometry reactivity assay
GTPase KRas [4] = molecular target: T1, GTPase KRas; test: Inhibition of KRAS G12C mutant in human NCI-H23 cells; format: cell-based
GTPase KRas [5] = molecular target: T1, GTPase KRas; test: Inhibition of KRAS G12C mutant in human NCI-H2030 cells; format: cell-based
[6] = tested on: von Hippel-Lindau disease tumor suppressor/GTPase KRas (Homo sapiens), P01116+P40337 [G12C]; test: PROTAC activity at VHL/KRAS G12C mutant in human NCI-H2030 cells assessed as induction of KRAS G12C degradation relative to control; format: cell-based
NCI-H358 [7] = test: Antitumor activity against human NCI-H358 cells xenografted in Balb/c nude mouse assessed as tumor growth inhibition at 5 mg/kg measured after 27 days by vernier caliper based assay relative to control; format: functional; settings: NCI-H358, 648 h, time 27 day, read-out: TGI
A-375 = test: Antiproliferative activity against human A-375 cells by CellTiter-Glo assay; format: functional, cell-based
NCI-H358 [8] = test: Antitumor activity against human NCI-H358 cells xenografted in Balb/c nude mouse assessed as tumor growth inhibition at 15 mg/kg measured after 27 days by vernier caliper based assay relative to control; format: functional; settings: NCI-H358, 648 h, time 27 day, read-out: TGI
MIA PaCa-2 = test: Antiproliferative activity against human MIA PaCa-2 cells harbouring KRAS G12C mutant by CellTiter-Glo assay; format: functional, cell-based
[9] = Stability in dog whole blood assessed as half life by LC/MS/MS analysis; format: ADME, tissue-based, Canis lupus familiaris
[10] = Stability in monkey whole blood assessed as half life by LC/MS/MS analysis; format: ADME, tissue-based, Macaca mulatta; settings: rhesus monkey
[11] = tested on: GTPase KRas (Homo sapiens), P01116 [G12C]; test: Binding affinity to KRAS G12C mutant (unknown origin) measured after 3 mins
[12] = tested on: GTPase KRas (Homo sapiens), P01116 [G12C]; test: Inhibition of KRAS G12C mutant (unknown origin) at 10 uM relative to control
GTPase KRas [13] = molecular target: T1, GTPase KRas; test: Inhibition of KRAS G12C mutant in human MIA PaCa-2 cells measured after 6 hrs; format: cell-based
GTPase KRas [14] = molecular target: T1, GTPase KRas; test: Inhibition of KRAS G12C mutant in human NCI-H358 cells measured after 6 hrs; format: cell-based
[15] = tested on: GTPase KRas (Homo sapiens), P01116 [G12C]; test: Inhibition of his tagged KRAS G12C mutant (1 to 169 residues) (unknown origin) by RapidFire mass spectrometric analysis; settings: concentration not given here
[16] = molecular target: T2, von Hippel-Lindau disease tumor suppressor/GTPase KRas (Homo sapiens, UniProt P01116+P40337, G12C); test: PROTAC activity at VHL/KRAS G12C mutant in human NCI-H2030 cells assessed as induction of KRAS G12C degradation; format: cell-based
[17] = tested on: von Hippel-Lindau disease tumor suppressor/GTPase KRas (Homo sapiens), P01116+P40337 [G12C]; test: PROTAC activity at VHL/KRAS G12C mutant in human NCI-H23 cells assessed as induction of KRAS G12C degradation relative to control; format: cell-based
[18] = molecular target: T2, von Hippel-Lindau disease tumor suppressor/GTPase KRas; test: PROTAC activity at VHL/KRAS G12C mutant in human NCI-H23 cells assessed as induction of KRAS G12C degradation; format: cell-based
[19] = tested on: GTPase KRas (Homo sapiens), P01116 [G12C]; test: Inhibition of KRAS G12C mutant (unknown origin) at 5 uM relative to control
[20] = tested on: GTPase KRas (Homo sapiens), P01116 [G12C]; test: Inhibition of KRAS G12C mutant (unknown origin); settings: concentration not given here
NCI-H358 [21] = test: Antiproliferative activity against human NCI-H358 cells harbouring KRAS G12C mutant by CellTiter-Glo assay; format: functional, cell-based

C=CC(=O)N1CCN(c2nc(OC[C@@H]3CCCN3C)nc3c2C[C@@H](C)C(c2cc(O)cc4ccccc24)C3)[C@@H](C)C1 (stereo partly drawn)
IC50 (GTPase KRas [1]): < 10 nM | IC50 (GTPase KRas [2]): < 6 nM

C=CC(=O)N1CCN(c2nc(Oc3cccc4c3CCN(C)C4)nc3c(Oc4c(Cl)c(F)cc5[nH]ncc45)nccc23)CC1
inhibition [3]: 80%

C=CC(=O)N1CCN(c2nc(O[C@@H]3CN(C)C[C@H]3OC)nc3c(Oc4c(Cl)c(Cl)cc5[nH]ncc45)nc(Cl)cc23)CC1
inhibition [3]: 82%

C=C(F)C(=O)N1CCN(c2nc(CO[C@@H]3CCCN3CCC(=O)NCCOCCOCCC(=O)N[C@@H](C(=O)N3[C@H](O)CC[C@H]3C(=O)NCc3ccc(-c4scnc4C)cc3)C(C)(C)C)nc3c2CCN(c2cccc4cccc(Cl)c24)C3)C[C@@H]1CC#N
EC50 (GTPase KRas [4]): 1300 nM | EC50 (GTPase KRas [5]): > 10000 nM | Emax [6]: 30%

C=CC(=O)N1CCN(c2ncnc3c(=O)n(-c4c(N)c(Cl)cc(Cl)c4F)c(C(F)(F)F)cc23)CC1
inhibition in vivo at 5 mg/kg (NCI-H358 [7]): 107% | IC50 (A-375): 7320 nM | inhibition in vivo at 15 mg/kg (NCI-H358 [8]): 116% | IC50 (MIA PaCa-2): 70000 nM

C=CC(=O)N1CCN(c2nc(OCCN3CC(F)(F)C3)nc3c(F)c(-c4c(O)cccc4F)c(Cl)cc23)CC1
half-life [9]: 3 h | half-life [10]: 7.8 h | Activity [11]: > 90%

C=CC(=O)N1CCN(c2nc(N3CC(N(C)C)C3)nc3c2C[C@@H](C)[C@H](c2c(Cl)c(C)cc4[nH]ccc24)C3)C[C@H]1C
inhibition [12]: 80% | IC50 (GTPase KRas [13]): 60 nM | IC50 (GTPase KRas [14]): 64 nM

C=CC(=O)N1CCN(c2c3c(nc4c(F)c(-c5c(O)cccc5F)c(Cl)cc24)NC(=O)NC3)CC1
inhibition [15]: > 50%

C=C(F)C(=O)N1CCN(c2nc(CO[C@@H]3CCCN3CCCOCCC(=O)N[C@@H](C(=O)C3N[C@H](C(=O)NCc4ccc(-c5scnc5C)cc4)C[C@H]3O)C(C)(C)C)nc3c2CCN(c2cccc4cccc(Cl)c24)C3)C[C@@H]1CC#N (stereo partly drawn)
EC50 (GTPase KRas [4]): 2900 nM | DC50 [16]: 590 nM | EC50 (GTPase KRas [5]): 3800 nM | Emax [6]: 75% | Emax [17]: 90% | DC50 [18]: 760 nM

C=CC(=O)N1CCN(c2nc(N3CC(N(C)C)C3)nc3c2C[C@@H](C)C(c2c(C)c(Cl)cc4[nH]ncc24)C3)CC1 (stereo partly drawn)
inhibition [19]: 78% | IC50 (GTPase KRas [13]): 68 nM | IC50 (GTPase KRas [14]): 102 nM

C=CC(=O)N1CCN(c2ncnc3c(F)c(-c4c(O)cccc4F)c(Cl)cc23)CC1
inhibition in vivo at 15 mg/kg (NCI-H358 [8]): 52%

C=CC(=O)N1CCN(c2nc(OCCN3CCCC3=O)nc3c(F)c(-c4c(O)cccc4F)c(Cl)cc23)CC1
inhibition [20]: > 90%

C=CC(=O)N1C[C@H](C)N(c2nc(N3CC(N(C)C)C3)nc3c(F)c(-c4c(C)ccc5cn[nH]c45)c(Cl)cc23)C[C@H]1C
half-life [9]: 5.95 h | half-life [10]: 3.9 h | Activity [11]: > 90%

C=CC(=O)N1CCN(c2ncnc3c(=O)n(-c4c(O)cccc4F)c(C(F)(F)F)cc23)CC1
IC50 (A-375): > 50000 nM | IC50 (NCI-H358 [21]): 5360 nM | IC50 (MIA PaCa-2): 6480 nM

C=CC(=O)N1C[C@H](C)N(c2nc(OCCN3CC(F)(F)C3)nc3c(F)c(-c4c(O)cccc4F)c(Cl)cc23)C[C@H]1C
half-life [9]: 3 h | half-life [10]: 7.8 h | Activity [11]: > 90%
